According to patent publication US8343934B2, “Diverse lead compound autotaxin inhibitors” (University of Memphis, priority 2009, dated 2013):
pIC50: −log10 of the molar value.

Target: T1, ATX (Homo sapiens, UniProt Q13822)
T1 construct: conditioned serum-free medium (CCM) from MDA-MB-435 cells as the source of ATX; endogenous in cells; host or cells: MDA-MB-435 cells (about 10x concentrated conditioned serum-free medium)
Assay: ATX inhibition assay (FS-3 substrate)
Format: biochemical
Settings: for % Response: preliminary screen, FS-3 hydrolysis at one hour, normalized to vehicle control, mean±S.D., same values given at 10 μM in Table 5
Experimental: ATX inhibition was assayed using the substrate FS-3 (Echelon Biosciences, Inc., Salt Lake City, Utah, USA). The FS-3 assay used ˜10 times concentrated conditioned serum-free medium (CCM) from MDA-MB-435 cells as the source of ATX, while CCM comprised one-third of the total volume. The final volume for FS-3 was comprised of the substrate at varying concentrations and 30 μM charcoal-stripped fatty acid free BSA (Sigma Aldrich) in assay buffer (1 mM each CaCl2 and MgCl2, 5 mM KCl, 140 mM NaCl, 50 mM Tris pH 8.0).
All assays were performed in 96-well plates with data read at 1 minute intervals by a Synergy2 system (BioTek, Winooski, Vt.). The fluorescence produced upon the hydrolysis of FS-3 was monitored using an excitation wavelength of 485 nm and an emission wavelength of 528 nm at 37° C. (Ferguson et al., 2006). […] All readings were normalized to vehicle control after subtraction of fluorescence in the absence of CCM. Data are shown as the mean±S.D. of at least three wells.

[1] = Calculated IC50 data for the 30 active compounds, FS-3 substrate

Structure (SMILES): O=C(N/N=C/c1ccc(O)c(S(=O)(=O)O)c1)C(=O)N/N=C/c1ccc(O)c(S(=O)(=O)O)c1.[Na+] [compound 55736]
- % Response: 95 ± 3.9%

Structure (SMILES): Nc1c(N=Nc2ccc([N+](=O)[O-])cc2)c(S(=O)(=O)O)cc2cc(S(=O)(=O)O)c(N=Nc3ccc(-c4ccc(N=Nc5c(S(=O)(=O)O)cc6cc(S(=O)(=O)O)c(N=Nc7ccc([N+](=O)[O-])cc7)c(N)c6c5O)cc4)cc3)c(O)c12.[Na+] [compound 65869]
- pIC50 [1]: 4.64
- % Response: 46 ± 6.7%

Structure (SMILES): Cc1ccc(C)c(N=Nc2c(S(=O)(=O)O)cc3cc(NC(=O)Nc4ccc5c(O)c(N=Nc6ccc7cc(S(=O)(=O)O)ccc7c6)c(S(=O)(=O)O)cc5c4)ccc3c2O)c1.[Na+] [compound 65576]
- pIC50 [1]: 4.81
- % Response: 35 ± 5.8%

Structure (SMILES): COc1cc(-c2ccc(N=Nc3c(S(=O)(=O)O)cc4cc(S(=O)(=O)O)c(N=Nc5ccc([N+](=O)[O-])cc5)c(N)c4c3O)c(OC)c2)ccc1N=Nc1ccc(N)cc1C.[Na+] [compound 79737]
- % Response: 62 ± 2.8%

Structure (SMILES): CC(C)(C)OC(=O)NC(CC(Cc1ccccc1)C(=O)O)C(=O)NC(CC(Cc1ccccc1)C(=O)O)C(=O)NC(CC(Cc1ccccc1)C(=O)O)C(=O)NCC(=O)Oc1ccc([N+](=O)[O-])cc1 (stereo not drawn) [compound 341348]
- pIC50 [1]: 5.60
- % Response: 43 ± 2.8%

Structure (SMILES): Nc1ccc(C(=O)Nc2ccc(NC(=O)Nc3ccc(NC(=O)c4ccc(N)cc4)c(S(=O)(=O)O)c3)cc2S(=O)(=O)O)cc1.[Na+] [compound 71960]
- % Response: 88 ± 5.3%

Structure (SMILES): O=C1C(Cl)=C(Nc2ccc(C(=O)Nc3ccc4cc(S(=O)(=O)O)cc(S(=O)(=O)O)c4c3)cc2)C(=O)C(Cl)=C1Nc1ccc(C(=O)Nc2ccc3cc(S(=O)(=O)O)cc(S(=O)(=O)O)c3c2)cc1.[Na+] [compound 12859]
- pIC50 [1]: 6.09
- % Response: 27 ± 2.8%

Structure (SMILES): COc1ccccc1N=Nc1c(S(=O)(=O)O)cc2cc(S(=O)(=O)O)c(N=Nc3ccc([N+](=O)[O-])cc3)c(N)c2c1O.[Na+] [compound 65829]
- % Response: 71 ± 4.0%

Structure (SMILES): Cc1ccc(Nc2cccc3c2C(=O)c2cccc(Nc4ccc(C)c(S(=O)(=O)O)c4)c2C3=O)cc1S(=O)(=O)O [compound 7804]
- % Response: 96 ± 6.4%

Structure (SMILES): O=C(Nc1cc[c]([Sb](=[O])([OH])[OH])cc1)Nc1cc[c]([Sb](=[O])([OH])[OH])cc1 [compound 15408]
- % Response: 100 ± 7.9%

Structure (SMILES): Cc1c(N)cc(S(=O)(=O)O)c(N=Nc2ccc(-c3ccc(N=Nc4c(S(=O)(=O)O)cc5cc(S(=O)(=O)O)c(N=Nc6cccc([N+](=O)[O-])c6)c(N)c5c4O)cc3)cc2)c1N.[Na+] [compound 80903]
- pIC50 [1]: 5.23
- % Response: 32 ± 2.6%

Structure (SMILES): Cc1ccc(Nc2ccc(Nc3ccc(C)cc3S(=O)(=O)[O-])c3c2C(=O)c2ccccc2C3=O)c(S(=O)(=O)[O-])c1.[Na+].[Na+] [compound 7795]
- % Response: 99 ± 5.0%

Structure (SMILES): O=C(N/N=C\c1ccc(O)c(S(=O)(=O)O)c1)N/N=C/c1ccc(O)c(S(=O)(=O)O)c1.[Na+] [compound 48776]
- % Response: 94 ± 3.5%

Structure (SMILES): Nc1c(N=Nc2ccc(S(=O)(=O)O)cc2)cc(S(=O)(=O)O)c2ccc(N=Nc3ccc([N+](=O)[O-])cc3)c(O)c12.[Na+] [compound 47725]
- % Response: 116 ± 4.2%

Structure (SMILES): O=S(=O)(c1ccc(NC(C(O)C(O)C(O)C(O)CO)S(=O)(=O)O)cc1)c1ccc(NC(C(O)C(O)C(O)C(O)CO)S(=O)(=O)O)cc1 (stereo not drawn) [compound 36701]
- % Response: 98 ± 3.7%

Structure (SMILES): NS(=O)(=O)c1ccc(N=NNc2ccc(C(=O)O)cc2)cc1.[Na+] [compound 13232]
- % Response: 101 ± 9.0%

Structure (SMILES): Nc1ccc(C(=O)Nc2cccc(C(=O)Nc3ccc4c(O)c(N=Nc5ccc(N=Nc6ccc(S(=O)(=O)[O-])cc6)cc5)c(S(=O)(=O)[O-])cc4c3)c2)cc1.[Na+].[Na+] [compound 47767]
- % Response: 61 ± 3.7%

Structure (SMILES): O=C(O)c1ccc2c(c1Nc1ccc(-c3ccc(Nc4c(C(=O)O)ccc5c4C(=O)c4ccccc4C5=O)cc3)cc1)C(=O)c1ccccc1C2=O [compound 7581]
- % Response: 70 ± 4.8%

Structure (SMILES): O=C(/C=C/c1ccc(O)c(O)c1)NCC(=O)NC(Cc1ccccc1)C(=O)O (stereo not drawn) [compound 332542]
- % Response: 96 ± 3.7%

Structure (SMILES): Nc1cccc(N=Nc2c(S(=O)(=O)[O-])cc3cc(NC(=O)Nc4ccc5c(O)c(N=Nc6cccc(N)c6)c(S(=O)(=O)[O-])cc5c4)ccc3c2O)c1.[Na+].[Na+] [compound 47750]
- % Response: 68 ± 5.8%

Structure (SMILES): O=C(/C=C\c1ccc(NCc2ccc(C(=O)O)cc2)cc1)CCl [compound 106024]
- % Response: 62 ± 2.5%

Structure (SMILES): Nc1c(N=Nc2ccc([N+](=O)[O-])cc2)c(S(=O)(=O)[O-])cc2cc(S(=O)(=O)[O-])c(N=Nc3ccc(-c4ccc(N=Nc5ccc(O)c(C(=O)[O-])c5)cc4)cc3)c(O)c12.[Na+].[Na+].[Na+] [compound 8681]
- % Response: 55 ± 5.5%

Structure (SMILES): Cc1c(N)cc(S(=O)(=O)O)cc1NC(=O)c1cccc([N+](=O)[O-])c1 [compound 5000]
- % Response: 100 ± 5.5%

Structure (SMILES): COc1ccc(/C=N\NC(=O)N/N=C/c2ccc(OC)c(S(=O)(=O)O)c2)cc1S(=O)(=O)O.[Na+] [compound 48775]
- % Response: 98 ± 5.5%

Structure (SMILES): O=C(CC(C(=O)O)S(=O)(=O)O)Nc1ccc(S(=O)(=O)c2ccc(NC(=O)CC(C(=O)O)S(=O)(=O)O)cc2)cc1.[Na+] (stereo not drawn) [compound 2460]
- % Response: 99 ± 3.1%

Structure (SMILES): Nc1ccc2cc(S(=O)(=O)O)cc(O)c2c1N=Nc1ccc(NC(=O)Nc2ccc(N=Nc3c(N)ccc4cc(S(=O)(=O)O)cc(O)c34)c(S(=O)(=O)O)c2)cc1S(=O)(=O)O [compound 11244]
- % Response: 78 ± 7.0%

Structure (SMILES): Nc1ccc2cc(S(=O)(=O)O)c(/N=N/c3ccc(-c4ccc(/N=N/c5c(S(=O)(=O)O)cc6cc(S(=O)(=O)O)cc(N)c6c5O)cc4)cc3)c(O)c2c1 [NSC 75779]
- % ATX Acitivity (10 μM) (10 μM compound, FS-3 substrate): 20 ± 5.7%
- pIC50 (Table 5, FS-3 substrate): 5.90

Structure (SMILES): O=C(O)c1ccc(C(=O)NCCCN(CCCCN(CCCNC(=O)c2ccc(C(=O)O)c(O)c2O)C(=O)c2ccc(C(=O)O)c(O)c2O)C(=O)c2ccc(C(=O)O)c(O)c2O)c(O)c1O.[Na+] [compound 338310]
- pIC50 [1]: 5.10
- % Response: 24 ± 2.9%

Structure (SMILES): O=C(O)c1ccccc1-c1c2ccc(=Nc3ccccc3)cc-2oc2cc(Nc3ccc(S(=O)(=O)O)cc3)ccc12.[Na+] [compound 11242]
- % Response: 73 ± 3.7%

Structure (SMILES): O=C(Nc1ccc2c(O)c(N=Nc3ccccc3)c(S(=O)(=O)[O-])cc2c1)Nc1ccc2c(O)c(N=Nc3ccccc3)c(S(=O)(=O)[O-])cc2c1.[Na+].[Na+] [compound 47749]
- % Response: 103 ± 58.1%

Structure (SMILES): Cc1cc(S(=O)(=O)O)ccc1N=c1ccc2c(-c3ccccc3C(=O)[O-])c3ccc(Nc4ccccc4C)cc3oc-2c1.[Na+] [compound 11246]
- pIC50 [1]: 4.99
- % Response: 42 ± 6.0%

Structure (SMILES): Cc1cccc(N=Nc2c(S(=O)(=O)O)cc3cc(NC(=O)Nc4ccc5c(O)c(N=Nc6ccc7cc(S(=O)(=O)O)ccc7c6)c(S(=O)(=O)O)cc5c4)ccc3c2O)c1.[Na+] [compound 65574]
- pIC50 [1]: 4.92
- % Response: 20 ± 3.7%

Structure (SMILES): COc1ccccc1N=Nc1c(S(=O)(=O)O)cc2cc(NC(=O)Nc3ccc4c(O)c(N=Nc5c(N)ccc6cc(S(=O)(=O)O)ccc56)c(S(=O)(=O)O)cc4c3)ccc2c1O [compound 45622]
- pIC50 [1]: 4.94
- % Response: 16 ± 3.1%

Structure (SMILES): Nc1ccc(S(=O)(=O)c2ccc(NCNC(CSSCC(NCNc3ccc(S(=O)(=O)c4ccc(N)cc4)cc3)C(=O)O)C(=O)O)cc2)cc1 (stereo not drawn) [compound 39858]
- % Response: 93 ± 4.6%

Structure (SMILES): O=C(Nc1ccc2cc(S(=O)(=O)O)cc(S(=O)(=O)O)c2c1)Nc1ccc2cc(S(=O)(=O)O)cc(S(=O)(=O)O)c2c1.[Na+] [compound 12857]
- % Response: 100 ± 7.3%

Structure (SMILES): O=C(Nc1ccc2cc(S(=O)(=O)O)ccc2c1)c1ccc(N=Nc2c(S(=O)(=O)O)cc3cc(S(=O)(=O)O)cc(NC(=O)c4ccccc4)c3c2O)cc1.[Na+] [compound 45620]
- pIC50 [1]: 5.05
- % Response: 28 ± 3.7%

Structure (SMILES): Nc1c(N=Nc2ccc([N+](=O)[O-])cc2)c(S(=O)(=O)O)cc2cc(S(=O)(=O)O)c(N=Nc3ccc(Sc4ccc(N=Nc5ccc(O)cc5)cc4)cc3)c(O)c12.[Na+] [compound 79723]
- % Response: 83 ± 3.2%

Structure (SMILES): Cc1cc(N)ccc1N=Nc1ccc(-c2ccc(N=Nc3c(S(=O)(=O)O)cc4cc(S(=O)(=O)O)c(N=Nc5ccc([N+](=O)[O-])cc5)c(N)c4c3O)cc2)cc1.[Na+] [compound 65851]
- pIC50 [1]: 5.02
- % Response: 42 ± 3.5%

Structure (SMILES): O=C(O)c1ccccc1N=N/C(=N\Nc1cc(S(=O)(=O)O)ccc1O)c1ccccc1 [compound 5359]
- % Response: 94 ± 2.6%
